Laboratory results: US8524917B2, “6-substituted indole-3-carboxylic acid amide compounds having sphingosine-1-phosphate (S1P) receptor antagonist biological activity” (Allergan, Inc., priority 2007, dated 2013)
Read-outs that look alike come from different tables or passages of the source.

Molecular target: human S1P3 receptor (Homo sapiens (Human), UniProt Q99500)
Test: Activation or block of activation of human S1P3 receptor, Ca+2 FLIPR assay
Format: cell-based
Description: Compounds were assessed for their ability to activate or block activation of the human S1P3 receptor in T24 cells stably expressing the human S1P3 receptor. Ten thousand cells/well were plated into 384-well poly-D-lysine coated plates one day prior to use. The growth media for the S1P3 receptor expressing cell line was McCoy's 5A medium supplemented with 10% charcoal-treated fetal bovine serum (FBS), 1% antibiotic-antimycotic and 400 μg/ml geneticin. On the day of the experiment, the cells were washed twice with Hank's Balanced Salt Solution supplemented with 20 mM HEPES (HBSS/Hepes buffer). […] Extracellular dye was removed by washing the cell plates four times prior to placing the plates in the FLIPR (Fluorometric Imaging Plate Reader, Molecular Devices). Ligands were diluted in HBSS/Hepes buffer and prepared in 384-well microplates. The positive control, Sphingosine-1-Phosphate (S1P), was diluted in HBSS/Hepes buffer with 4 mg/ml fatty acid free bovine serum albumin. The FLIPR transferred 12.5 μl from the ligand microplate to the cell plate and took fluorescent measurements for 75 seconds, taking readings every second, and then for 2.5 minutes, taking readings every 10 seconds. […] IC50 values were determined through a […] analysis using the Levenburg Marquardt algorithm.

[1] = T24 cells stably expressing the human S1P3 receptor, value in brackets
[2] = T24 cells stably expressing the human S1P3 receptor, FLIPR Ca+2 response, 0.61 nM to 10,000 nM, read-out: S1P3 IC50

Chain of human S1P3 receptor (Q99500 whole entry): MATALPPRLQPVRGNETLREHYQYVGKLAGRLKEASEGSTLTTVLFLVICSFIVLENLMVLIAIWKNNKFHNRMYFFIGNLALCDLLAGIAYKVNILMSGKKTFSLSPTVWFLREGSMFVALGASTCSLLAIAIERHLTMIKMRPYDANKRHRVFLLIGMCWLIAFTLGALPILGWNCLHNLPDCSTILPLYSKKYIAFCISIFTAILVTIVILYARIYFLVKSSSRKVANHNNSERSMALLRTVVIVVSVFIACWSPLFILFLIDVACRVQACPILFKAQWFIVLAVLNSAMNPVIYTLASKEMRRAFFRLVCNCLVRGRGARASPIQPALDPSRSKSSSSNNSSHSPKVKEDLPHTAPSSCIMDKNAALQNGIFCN

SMILES	IC50	S1P3 (% inh) [1]	IC50 [2]	S1P3 (% inh)
CC(C)c1c(C(=O)NCc2ccc(F)c(F)c2)c2ccc(C(=O)N3CCCC3)cc2n1Cc1ccccc1	170 nM	170 nM (100) %		
CC(C)c1c(C(=O)NCc2ccc(F)c(F)c2)c2ccc(C(=O)N(C)C)cc2n1Cc1ccccc1		100%	197 nM	
CC(C)NC(=O)c1ccc2c(C(=O)NCc3ccc(F)c(F)c3)c(C(C)C)n(Cc3ccccc3)c2c1		100%	634 nM	
CCNC(=O)c1ccc2c(C(=O)NCc3ccc(F)c(F)c3)c(C(C)C)n(Cc3ccccc3)c2c1		99%	346 nM	
CCCNC(=O)c1ccc2c(C(=O)NCc3ccc(F)c(F)c3)c(C(C)C)n(Cc3ccccc3)c2c1		99%	146 nM	
CC(C)c1c(C(=O)NCc2ccc(F)c(F)c2)c2ccc(CN3CCCC3)cc2n1Cc1ccccc1		93%	362 nM	
CC(C)c1c(C(=O)NCc2ccc(F)c(F)c2)c2ccc(CN(C)C)cc2n1Cc1ccccc1		98%	990 nM	
CC(C)NCc1ccc2c(C(=O)NCc3ccc(F)c(F)c3)c(C(C)C)n(Cc3ccccc3)c2c1		84%	2300 nM	
CCNCc1ccc2c(C(=O)NCc3ccc(F)c(F)c3)c(C(C)C)n(Cc3ccccc3)c2c1		87%	2500 nM	
CCCNCc1ccc2c(C(=O)NCc3ccc(F)c(F)c3)c(C(C)C)n(Cc3ccccc3)c2c1		77%	2600 nM	
CC(C)COC(=O)c1ccc2c(C(=O)NCc3ccc(F)c(F)c3)c(C(C)C)n(Cc3ccccc3)c2c1	12 nM	12 nM (97) %		
CCCCOC(=O)c1ccc2c(C(=O)NCc3ccc(F)c(F)c3)c(C(C)C)n(Cc3ccccc3)c2c1		97%	4 nM	
CO/N=C/c1ccc2c(C(=O)NCc3ccc(F)c(F)c3)c(C(C)C)n(Cc3ccccc3)c2c1		99%	21 nM	
CC(C)CO/N=C/c1ccc2c(C(=O)NCc3ccc(F)c(F)c3)c(C(C)C)n(Cc3ccccc3)c2c1		100%	88 nM	
CC(C)c1c(C(=O)NCc2cccnc2)c2ccc(OC3CCCC3)cc2n1Cc1ccccn1		95%	86 nM	
CCOC(=O)c1ccc2c(C(=O)NCc3ccccc3)c(C(C)C)n(Cc3ccccc3)c2c1		96%	9 nM	
CCOC(=O)c1ccc2c(C(=O)NCc3cccnc3)c(C(C)C)n(Cc3ccccc3)c2c1	187 nM			187 nM (95) %
CCO/N=C/c1ccc2c(C(=O)NCc3ccc(F)c(F)c3)c(C(C)C)n(Cc3ccccc3)c2c1		99%	145 nM	
CCCOc1ccc2c(C(=O)NCc3cccnc3)c(C(C)C)n(Cc3ccccn3)c2c1		99%	1200 nM	
CC(C)COc1ccc2c(C(=O)NCc3cccnc3)c(C(C)C)n(Cc3ccccn3)c2c1	124 nM			124 nM (99) %
CCOC(=O)c1ccc2c(C(=O)NCc3cccc(F)c3)c(C(C)C)n(Cc3ccccc3)c2c1		99%	42 nM	
CCOC(=O)c1ccc2c(C(=O)NCc3ccc(F)cc3)c(C(C)C)n(Cc3ccccc3)c2c1		99%	43 nM	
CC(C)OC(=O)c1ccc2c(C(=O)NCc3ccc(F)c(F)c3)c(C(C)C)n(Cc3ccccc3)c2c1		99%	45 nM	
CO/N=C(\C)c1ccc2c(C(=O)NCc3ccc(F)c(F)c3)c(C(C)C)n(Cc3ccccc3)c2c1	147 nM			147 nM (100) %
CCOC(=O)c1ccc2c(C(=O)NCc3cccc(F)c3)c(C(C)C)n(Cc3ccccn3)c2c1	174 nM			174 nM (100) %
CC(C)c1c(C(=O)NCc2ccc(F)c(F)c2)c2ccc(/C=N/N(C)C)cc2n1Cc1ccccn1		100%	93 nM	
CO/N=C/c1ccc2c(C(=O)NCc3ccc(F)c(F)c3)c(C(C)C)n(Cc3ccccn3)c2c1		100%	137 nM	
